# Laboratory results as given in US20050226135A1, “Write-once information recording medium” (KABUSHIKI KAISHA TOSHIBA, priority 2004, published 2005).
# Assay: solubility in an organic solvent at 20° C. by an ordinary method
# Type: physicochemical
# Conditions: organic solvents of amide, alcohol, ketone, nitrile and halogen systems (chloroform, N,N-dimethyl formamide, methanol, 2,2,3,3-tetrafluoro-1-propanol, ethyl methyl ketone, acetonitrile)
smiles,measurement,value
COc1ccc(OC)c(/N=N/C(=N\[N]([Ni][N](/N=C(\N=N\c2cc(OC)ccc2OC)c2ccccn2)c2ccc([N+](=O)[O-])cn2)c2ccc([N+](=O)[O-])cn2)c2ccccn2)c1 [chemical formula 3],solubility in an organic solvent,practically applicable solubility
